Experimental data published in patent publication US12240813B2, “Deuterated tryptamine derivatives and methods of use” (priority 2020, dated 2025).

Each compound was assayed on rat liver microsomes (assay: Metabolic stability in rat liver microsomes (RLM)). Settings: RLM; last assay time point 120 min.

Row | Compound | RLM (metabolized or not)
1 | CC(C)NCCc1c[nH]c2ccccc12 [reference compound] | R
2 | C=CCN(CC=C)CCc1c[nH]c2ccccc12 [reference compound] | R
3 | C=CCNCCc1c[nH]c2ccccc12 [reference compound] | R
4 | CCN(CC)CCc1c[nH]c2ccc(OC)cc12 [reference compound] | R
5 | CC(C)N(CCc1c[nH]c2cccc(O)c12)C(C)C [reference compound] | R
6 | CCN(CC)CCc1c[nH]c2cccc(OC)c12 [reference compound] | R
7 | CCN(CC)CCc1c[nH]c2ccccc12 [reference compound] | R
8 | CCNCCc1c[nH]c2cccc(O)c12 [reference compound] | R
9 | CC(C)NCCc1c[nH]c2cccc(O)c12 [reference compound] | R
10 | [2H]c1ccc2[nH]c([2H])c(CCN([2H])CC)c2c1O | R
11 | CCN(CC)CCc1c[nH]c2ccc(O)cc12 [reference compound] | R

Same assay, conditions: RLM; values in square brackets are within 10% difference (assay's accuracy), no deuteration effect

Row | Compound | RLM, % (half-life as % vs. the related nondeuterated compound)
12 | [2H]c1[nH]c2c([2H])c([2H])c([2H])c(O)c2c1CCN(C(C)C)C(C)C | 167%
13 | [2H]C([2H])(NC(C)C)C([2H])([2H])c1c[nH]c2cccc(O)c12 | [108] %
14 | [2H]C([2H])(c1c[nH]c2ccccc12)C([2H])([2H])N(CC=C)CC=C | [106] %
15 | [2H]c1[nH]c2c([2H])c([2H])c(OC)c([2H])c2c1CCN(CC)CC | 172%
16 | [2H]c1[nH]c2c([2H])c([2H])c([2H])c([2H])c2c1CCN([2H])C(C)C | 145%
17 | [2H]C([2H])([2H])C([2H])([2H])NC([2H])([2H])C([2H])([2H])c1c[nH]c2cccc(O)c12 | [93] %
18 | [2H]C([2H])(NC(C)C)C([2H])([2H])c1c[nH]c2ccccc12 | [106] %
19 | [2H]C([2H])(c1c[nH]c2ccccc12)C([2H])([2H])N(CC)CC | [105] %
20 | [2H]C([2H])(c1c[nH]c2ccc(O)cc12)C([2H])([2H])N(CC)CC | [106] %
21 | [2H]C([2H])(c1c[nH]c2ccc(OC)cc12)C([2H])([2H])N(CC)CC | [95] %
22 | [2H]C([2H])(c1c[nH]c2cccc(O)c12)C([2H])([2H])N(C(C)C)C(C)C | [97] %
23 | [2H]C([2H])(NCC)C([2H])([2H])c1c[nH]c2cccc(O)c12 | [94] %
24 | [2H]c1[nH]c2c([2H])c([2H])c([2H])c(O)c2c1CCN([2H])C(C)C | 131%
